Measured values as given in publication PMC10138554, “Insights into the Microbicidal, Antibiofilm, Antioxidant and Toxicity Profile of New O-Aryl-Carbamoyl-Oxymino-Fluorene Derivatives” (International Journal of Molecular Sciences, 2023).
≈ marks a conversion by molar mass, not a printed value.

Experiments:
C. albicans ATCC 90029 [1] = assay: MIC assay, serial two-fold microdilution in liquid medium; type: cell-based; settings: Candida albicans, ATCC90029; C. albicans ATCC 90029, planktonic, 37 °C, 24 h; read-out: minimum inhibitory concentration (MIC)
Method: (§1) The inhibitory activity of the obtained compounds has been assessed on five microbial strains, respectively: E. coli ATCC 25922, P. aeruginosa ATCC 27853, S. aureus ATCC 25923, E. faecalis ATCC 29212 and C. albicans ATCC 90029, in a planktonic and adherent growth state.
(§2) The MIC assay was performed by the serial two-fold microdilutions in a liquid medium, using a concentration range from 5 to 0.009 mg/mL and microbial suspensions of 0.5 MacFarland density. The wells containing only the microbial culture served as positive control and those containing the sterile culture medium as the negative control. The MIC values were read after incubation at 37 °C for 24 h.

E. coli ATCC 25922 [2] = assay: as above; type: cell-based; settings: Escherichia coli, ATCC25922; E. coli ATCC 25922, planktonic, 37 °C, 24 h; read-out: minimum inhibitory concentration (MIC)
Method: as §1, §2

E. faecalis ATCC 29212 [3] = assay: as above; type: cell-based; settings: Enterococcus faecalis, ATCC29212; E. faecalis ATCC 29212, planktonic, 37 °C, 24 h; read-out: minimum inhibitory concentration (MIC)
Method: as §1, §2

P. aeruginosa ATCC 27853 [4] = assay: as above; type: cell-based; settings: Pseudomonas aeruginosa, ATCC27853; P. aeruginosa ATCC 27853, planktonic, 37 °C, 24 h; read-out: minimum inhibitory concentration (MIC)
Method: as §1, §2

S. aureus ATCC 25923 [5] = assay: as above; type: cell-based; settings: Staphylococcus aureus, ATCC25923; S. aureus ATCC 25923, planktonic, 37 °C, 24 h; read-out: minimum inhibitory concentration (MIC)
Method: as §1, §2

C. albicans ATCC 90029 [6] = assay: MBC assay, plating on solid medium after MIC reading; type: cell-based; settings: Candida albicans, ATCC90029, read-out: minimum bactericidal concentration (MBC)
Method: as §1
(§3) The MB assay was performed after reading the MIC values.

E. coli ATCC 25922 [7] = assay: as above; type: cell-based; settings: Escherichia coli, ATCC25922, read-out: minimum bactericidal concentration (MBC)
Method: as §1, §3

E. faecalis ATCC 29212 [8] = assay: as above; type: cell-based; settings: Enterococcus faecalis, ATCC29212, read-out: minimum bactericidal concentration (MBC)
Method: as §1, §3

P. aeruginosa ATCC 27853 [9] = assay: as above; type: cell-based; settings: Pseudomonas aeruginosa, ATCC27853, read-out: minimum bactericidal concentration (MBC)
Method: as §1, §3

S. aureus ATCC 25923 [10] = assay: as above; type: cell-based; settings: Staphylococcus aureus, ATCC25923, read-out: minimum bactericidal concentration (MBC)
Method: as §1, §3

E. faecalis ATCC 29212 [11] = assay: Anti-biofilm activity assay, purple violet microtiter method; type: cell-based; settings: E. faecalis ATCC 29212 biofilm
Method: as §1
(§4) The anti-biofilm activity assay was performed by the purple violet microtiter method, as previously described, allowing us to determine the minimal biofilm inhibitory concentration (MBEC). The same range of concentrations, as in the MIC assay, i.e., from 5 to 0.009 mg/mL has been tested.

S. aureus ATCC 25923 [12] = assay: as above; type: cell-based, Staphylococcus aureus; settings: S. aureus ATCC 25923 biofilm
Method: as §1, §4

E. coli ATCC 25922 [13] = assay: as above; type: cell-based, Escherichia coli; settings: E. coli ATCC 25922 biofilm
Method: as §1, §4

E. faecalis ATCC 29212 [14] = assay: Flow cytometry (FCM) membrane depolarization, DiBAC4(3); type: cell-based; settings: for staining index value (SI): E. faecalis ATCC 29212, DiBAC4, 18–24 h
Method: The investigation of potential mechanisms of antimicrobial action by flow cytometry (FCM) was performed on microbial cultures obtained after 18–24 h of microbial cell incubation in the presence of subinhibitory concentrations of the analyzed compounds. Thus, microbial suspensions with a density of approximately 10^6 CFU/mL were prepared in sterile saline phosphate buffer from exponentially growing microbial cultures, obtained on a solid culture medium. Subinhibitory concentrations of the compounds were prepared in Muller–Hinton liquid culture medium and inoculated with an equal amount of microbial suspension and incubated for 18–24 h at 37 °C.
Microbial suspensions inoculated in a liquid medium were used as growth control. After incubation, the DiBAC4 fluorochrome solution [bis-(1,3-dibutylbarbituric acid) trimethinoxonol] Invitrogen/Life Technologies, Carlsbad, was added (0.5 μg/mL).
Fluorescence intensity (FI) was measured with an Accuri C6 plus flow cytometer in the FITC fluorescence channel. Growth control was used to locate the microbial cell population for fluorescence measurements. DiBAC4 dye was used to detect changes in the microbial membrane potential. […] A twofold increased fluorescence intensity (median fluorescence intensity = MFI) was considered to correspond to the depolarized microbial cells. For each subinhibitory concentration, a coloring index (CI) was calculated which represents the ratio of fluorescence intensity (FI) of treated versus untreated cells.

[15] = In vitro cytotoxicity assay, IncuCyte S3 live-cell analysis; type: cell-based; settings: human, 72-h period
Method: The cytotoxicity of the investigated compounds was tested using the IncuCyte Basic Analysiskit, allowing to calculate the IC50, against three tumoral cell lines, i.e., HeLa (cervical cancer cells), HT29 (colon adenocarcinoma) and MG63 (osteosarcoma). The selected metric of the concentration-response module was set on phase and confluence (%).
In our experiments, we used colorectal adenocarcinoma HT29 (ATCC HTB-38), cervical adenocarcinoma cells HeLa (ATCC CRM-CCL2), and osteosarcoma MG63 (ATCC CRL-1427). The cells were maintained in Dulbeco’s Modified Medium (DMEM): F12 (Thermo Fisher Scientific, Waltham, MA, USA) supplemented with 10% fetal bovine serum (FBS, Thermo Fisher Scientific, Waltham, MA, USA). For the in vitro evaluation of their cytotoxicity, the new derivatives were solubilized in DMSO at a concentration of 10 mg/mL and filtered with 0.22 µm Millex-GV Filter (Merck, Darmstadt, Germany). For cytotoxicity kinetics, the IncuCyte® S3 Live-Cell Analysis System (Sartorius, AG, Goettingen, Germany) was used. Briefly, 2 × 10^4 cells seeded in 96 well plates were treated with the new derivatives in a concentration ranging between 500 μg/mL and 3.9 μg/mL. The plates were placed in the IncuCyte® S3 Live-Cell Analysis System, and five images per well were taken every six h over a 72-h period and then processed, according to kit recommendations.

[16] = subinhibitory concentration tested 2.5 mg/mL
[17] = HT29 cells (colorectal adenocarcinoma), HT29, phase confluence (%)
[18] = HeLa cells (cervical adenocarcinoma), phase confluence (%)
[19] = MG63 cells (osteosarcoma), MG63, phase confluence (%)
[20] = subinhibitory concentration tested 1.25 mg/mL

## O=C(Nc1ccccc1)ON=C1c2ccccc2-c2ccccc21 [Compound 1a, 9-(phenylcarbamoyloxymino)fluoren]
C. albicans ATCC 90029 [1]
  MIC: 2500 mg/L (≈ 7.95 mM)
E. coli ATCC 25922 [2]
  MIC: 2500 mg/L (≈ 7.95 mM)
E. faecalis ATCC 29212 [3]
  MIC: 2500 mg/L (≈ 7.95 mM)
P. aeruginosa ATCC 27853 [4]
  MIC: 2500 mg/L (≈ 7.95 mM)
S. aureus ATCC 25923 [5]
  MIC: 2500 mg/L (≈ 7.95 mM)
C. albicans ATCC 90029 [6]
  MBC: 5000 mg/L (≈ 15.9 mM)
E. coli ATCC 25922 [7]
  MBC: 2500 mg/L (≈ 7.95 mM)
E. faecalis ATCC 29212 [8]
  MBC: 5000 mg/L (≈ 15.9 mM)
P. aeruginosa ATCC 27853 [9]
  MBC: 2500 mg/L (≈ 7.95 mM)
S. aureus ATCC 25923 [10]
  MBC: 5000 mg/L (≈ 15.9 mM)
E. faecalis ATCC 29212 [11]
  minimum biofilm inhibitory concentration (MBIC): 1.25 mg/mL
S. aureus ATCC 25923 [12]
  minimum biofilm inhibitory concentration (MBIC): 5 mg/mL
E. coli ATCC 25922 [13]
  minimum biofilm inhibitory concentration (MBIC): 0.625 mg/mL
E. faecalis ATCC 29212 [14]; [16]
  staining index value (SI): 2.21
[15]; [17]
  IC50 at 72 h: 11 ± 0.75 mg/L (≈ 0.035 mM)
[15]; [18]
  IC50 at 72 h: 7.52 ± 1.39 mg/L (≈ 0.0239 mM)
[15]; [19]
  IC50 at 72 h: 31.5 mg/L (≈ 0.1 mM)

## Cc1cccc(NC(=O)ON=C2c3ccccc3-c3ccccc32)c1 [Compound 1b, 9-((3-methyl-phenyl)carbamoyloximino)fluoren]
C. albicans ATCC 90029 [1]
  MIC: 5000 mg/L (≈ 15.2 mM)
E. coli ATCC 25922 [2]
  MIC: 5000 mg/L (≈ 15.2 mM)
E. faecalis ATCC 29212 [3]
  MIC: 10000 mg/L (≈ 30.5 mM)
P. aeruginosa ATCC 27853 [4]
  MIC: 2500 mg/L (≈ 7.61 mM)
S. aureus ATCC 25923 [5]
  MIC: 2500 mg/L (≈ 7.61 mM)
C. albicans ATCC 90029 [6]
  MBC: 10000 mg/L (≈ 30.5 mM)
E. coli ATCC 25922 [7]
  MBC: 5000 mg/L (≈ 15.2 mM)
E. faecalis ATCC 29212 [8]
  MBC: 10000 mg/L (≈ 30.5 mM)
P. aeruginosa ATCC 27853 [9]
  MBC: 2500 mg/L (≈ 7.61 mM)
S. aureus ATCC 25923 [10]
  MBC: 5000 mg/L (≈ 15.2 mM)
E. faecalis ATCC 29212 [11]
  minimum biofilm inhibitory concentration (MBIC): 1.25 mg/mL
S. aureus ATCC 25923 [12]
  minimum biofilm inhibitory concentration (MBIC): 2.5 mg/mL
E. coli ATCC 25922 [13]
  minimum biofilm inhibitory concentration (MBIC): 0.078 mg/mL
E. faecalis ATCC 29212 [14]; [16]
  staining index value (SI): 3.99
[15]; [17]
  IC50 at 72 h: 6.33 ± 3.02 mg/L (≈ 0.0193 mM)
[15]; [18]
  IC50 at 72 h: 8.5 ± 2.26 mg/L (≈ 0.0259 mM)
[15]; [19]
  IC50 at 72 h: 22 ± 2.48 mg/L (≈ 0.067 mM)

## O=C(Nc1cccc(Cl)c1)ON=C1c2ccccc2-c2ccccc21 [Compound 1c, 9-((3-chloro-phenyl)carbamoyloxymino)fluoren]
C. albicans ATCC 90029 [1]
  MIC: 5000 mg/L (≈ 14.3 mM)
E. coli ATCC 25922 [2]
  MIC: 2500 mg/L (≈ 7.17 mM)
E. faecalis ATCC 29212 [3]
  MIC: 5000 mg/L (≈ 14.3 mM)
P. aeruginosa ATCC 27853 [4]
  MIC: 2500 mg/L (≈ 7.17 mM)
S. aureus ATCC 25923 [5]
  MIC: 2500 mg/L (≈ 7.17 mM)
C. albicans ATCC 90029 [6]
  MBC: 10000 mg/L (≈ 28.7 mM)
E. coli ATCC 25922 [7]
  MBC: 5000 mg/L (≈ 14.3 mM)
E. faecalis ATCC 29212 [8]
  MBC: 5000 mg/L (≈ 14.3 mM)
P. aeruginosa ATCC 27853 [9]
  MBC: 2500 mg/L (≈ 7.17 mM)
S. aureus ATCC 25923 [10]
  MBC: 5000 mg/L (≈ 14.3 mM)
E. faecalis ATCC 29212 [11]
  minimum biofilm inhibitory concentration (MBIC): 0.312 mg/mL
S. aureus ATCC 25923 [12]
  minimum biofilm inhibitory concentration (MBIC): 5 mg/mL
E. coli ATCC 25922 [13]
  minimum biofilm inhibitory concentration (MBIC): 1.25 mg/mL
E. faecalis ATCC 29212 [14]; E. faecalis ATCC 29212, subinhibitory concentration
  changes in the membrane potential: did not cause changes
E. faecalis ATCC 29212 [14]; [20]
  staining index value (SI): 0.32
[15]; [17]
  IC50 at 72 h: 10.8 ± 1.36 mg/L (≈ 0.031 mM)
[15]; [18]
  IC50 at 72 h: 8.9 ± 2.56 mg/L (≈ 0.0255 mM)
[15]; [19]
  IC50 at 72 h: 22.8 ± 0.78 mg/L (≈ 0.0654 mM)

## O=C(Nc1ccc(Cl)c(Cl)c1)ON=C1c2ccccc2-c2ccccc21 [Compound 1d, 9-((3,4-dichloro-phenyl)carbamoyloxymino)fluoren]
C. albicans ATCC 90029 [1]
  MIC: 5000 mg/L (≈ 13 mM)
E. coli ATCC 25922 [2]
  MIC: 5000 mg/L (≈ 13 mM)
E. faecalis ATCC 29212 [3]
  MIC: 5000 mg/L (≈ 13 mM)
P. aeruginosa ATCC 27853 [4]
  MIC: 2500 mg/L (≈ 6.52 mM)
S. aureus ATCC 25923 [5]
  MIC: 156 mg/L (≈ 0.407 mM)
C. albicans ATCC 90029 [6]
  MBC: 10000 mg/L (≈ 26.1 mM)
E. coli ATCC 25922 [7]
  MBC: 5000 mg/L (≈ 13 mM)
E. faecalis ATCC 29212 [8]
  MBC: 5000 mg/L (≈ 13 mM)
P. aeruginosa ATCC 27853 [9]
  MBC: 2500 mg/L (≈ 6.52 mM)
S. aureus ATCC 25923 [10]
  MBC: 312 mg/L (≈ 0.814 mM)
E. faecalis ATCC 29212 [11]
  minimum biofilm inhibitory concentration (MBIC): 1.25 mg/mL
S. aureus ATCC 25923 [12]
  minimum biofilm inhibitory concentration (MBIC): 0.019 mg/mL
E. coli ATCC 25922 [13]
  minimum biofilm inhibitory concentration (MBIC): 0.625 mg/mL
E. faecalis ATCC 29212 [14]; [20]
  staining index value (SI): 44.54
[15]; [17]
  IC50 at 72 h: 8.17 ± 2.98 mg/L (≈ 0.0213 mM)
[15]; [18]
  IC50 at 72 h: 7.59 ± 3.64 mg/L (≈ 0.0198 mM)
[15]; [19]
  IC50 at 72 h: 26.3 ± 0.92 mg/L (≈ 0.0686 mM)
